Measurements as given in patent US20140031288A1, “NOVEL COMPOSITION FOR TUMOR GROWTH CONTROL” (Erasmus University Medical Center, priority 2006, published 2014).

What was measured:
[1] = system: human BON carcinoid tumor cells; assay: Cell proliferation assay (total DNA content, Hoechst 33258); type: cell-based; settings: for effect on BON carcinoid cell growth, measured as DNA content: 10^−8M, drug alone
Description: (§1) Human pancreatic carcinoid BON cells were obtained from Dr Townsend (The University of Texas Medical Branch, Galveston, Tex., USA). The cells were cultured in a humidified incubator containing 5% CO2 at 37° C. The culture medium consisted of a 1:1 mixture of Dulbecco's modified Eagle's medium (DMEM) and F12K medium, supplemented with 10% FCS, penicillin (1×105 U/l), fungizone (0.5 mg/l) and 1-glutamine (2 mmol/l). Periodically, cells were confirmed as Mycoplasma-free. Cells were harvested with trypsin EDTA 10% and resuspended in medium. Before plating, cells were counted microscopically using a standard hemocytometer. Trypan Blue staining was used to assess cell viability, which always exceeded 95%. Media and supplements were obtained from GIBCO Bio-cult Europe (Invitrogen, Breda, The Netherlands).
After trypsinization, the cells were plated in 1 ml of medium in 24-well plates at a density of 0.4-2×10^4 cells/well. The plates were then placed in a 37° C., 5% CO2 incubator. Three days later the cell culture medium was replaced with 1 ml/well medium containing 5-aza-2′-deoxycytidine at different concentrations in the dose curve response experiment (0, 10^−5M, 10^−6M, 10^−7M, 10^−8M and 10^−9M) or 5-aza-2′-deoxycytidine (5×10^−8M) with or without the somatostatin analog octreotide (10^−8M) or the dopamine agonist cabergoline (10^−8M). In experiments evaluating the combination of 5-aza-2′-deoxycytidine and octreotide or cabergoline, a pre-treatment with 5-aza-2′-deoxycytidine (5×10^−8M) has been performed for 24 hours.
Plates were further incubated at 37° C. and 5% CO2. After 3 and 6 days of treatment cells were harvested for DNA measurement. Plates for 6 days were refreshed after 3 days and compounds were added again. Quadruplicates of each treatment were performed. Measurement of total DNA-contents, representative for the number of cells, was performed using the bisbenzimide fluorescent dye (Hoechst™ 33258) (Boehring Diagnostics, La Jolla, Calif.), as previously described (Hofland L J, van Koetsveld P M, Lamberts S W. Percoll density gradient centrifugation of rat pituitary tumor cells: a study of functional heterogeneity within and between tumors with respect to growth rates, prolactin production and responsiveness to the somatostatin analog SMS 201-995. Eur J Cancer 1990; 26:37-44.).

[2] = system: human BON carcinoid cells; assay: Apoptosis assay (DNA fragmentation, Cell Death Detection ELISA); type: cell-based; settings: for effect on apoptosis, measured as DNA fragmentation, drug alone: 10^−8M
Description: as §1, with “Trypan Blue staining was used to assess cell viability, which always exceeded 95%.” left out
After trypsinization BON cells were plated in 24-well plates at a density of 1.5-2×10^4 cells/well. These plates were placed in a 37° C., 5% CO2 incubator. Three days later the medium was refreshed in the presence and absence (control group) of 5-aza-2′-deoxycytidine at different concentrations in the dose curve response experiment (10^−5M, 10^−6M, 10^−7M, 10^−8M and 10^−9M) or 5-aza-2′-deoxycytidine (5×10^−8M) with or without the somatostatin analog octreotide (10^−8M) or the dopamine agonist cabergoline (10^−8M).
Quadruplicates of each treatment were performed. After an additional incubation of 3 days, apoptosis was assessed using a commercially available ELISA kit (Cell Death Detection ELISAPlus, Roche Diagnostic GmbH, Penzberg, Germany). This assay is based on a quantitative sandwich-enzyme-immunoassay-principle, using mouse monoclonal antibodies directed against DNA and histones, respectively. This allows the specific determination of mono- and oligo-nucleosomes in the cytoplasmatic fraction of cell lysate, typical for apoptosis. The standard protocol supplied by the manufacturer was used. Briefly, the medium was carefully removed by suction, cells were incubated in 100 μl of lysis buffer (provided with the Cell Death Detection ELISAPlus assay). After lysis of the cells the solution was incubated with anti-DNA and anti-histone antibodies in a streptavidin-coated 96-well plate for 2 hours. After washing, the immunocomplex-bound peroxidase was probed with 2,2′-azino-di[3-ethylbenzthiazoline sulfonate] (a chromogenic substrate) for spectrophotometric detection at 405 nm, to quantify the amount of nucleosomes bound to the plate. Relative apoptosis was determined by a ratio of the average absorbance of the treatment wells to the average absorbance of the control wells.

SMILES	inhibition of BON carcinoid cell growth, dose curve ([1]; 3 or 6 day incubation, 10^−9M to 10^−5M, data not shown)	inhibition of BON carcinoid cell growth at low dose ([1]; 5×10^−8M, 6 days, p<0.001 vs control)	IC25 value of the tumor cell growth inhibitory effect ([1]; after 6 days of incubation)	induction of DNA fragmentation ([2]; 5×10^−8M, 3 days, p<0.001 vs control)	induction of DNA fragmentation, dose curve ([2]; 3 day incubation, 10^−9M to 10^−5M, data not shown)	effect of AZA alone on DNA fragmentation (FIG. 3, FIG. 4) ([2]; AZA (5 nM) alone)	EC25 value of the apoptosis inducing effect ([2]; after 3 days of incubation)	effect on BON carcinoid cell growth, measured as DNA content ([1]; 3 or 6 day incubation)	effect on apoptosis, measured as DNA fragmentation, drug alone ([2]; 3 day incubation)
Nc1ncn([C@H]2C[C@H](O)[C@@H](CO)O2)c(=O)n1 [5-aza-2′-deoxycytidine]	time- and dose-dependent manner	significantly inhibited	approximately 5×10^−8 M	approximately 100%	dose-dependent manner	moderate effect	approximately 5×10^−8 M	–	–
C=CCN1C[C@H](C(=O)N(CCCN(C)C)C(=O)NCC)C[C@@H]2c3cccc4[nH]cc(c34)C[C@H]21 [cabergoline]	–	–	–	–	–	–	–	no statistically significant effect	no statistically significant effect
C[C@@H](O)[C@@H]1NC(=O)[C@H](CCCCN)NC(=O)[C@@H](Cc2c[nH]c3ccccc23)NC(=O)[C@H](Cc2ccccc2)NC(=O)[C@@H](NC(=O)[C@H](N)Cc2ccccc2)CSSC[C@@H](C(=O)N[C@H](CO)[C@@H](C)O)NC1=O [octreotide]	–	–	–	–	–	–	–	no statistically significant effect	no statistically significant effect
